Source: patent publication EP4810038A1, “METHOD FOR TREATING ALK-POSITIVE OR ROS1-POSITIVE NON-SMALL CELL LUNG CANCER” (Shenzhen TargetRx Co., Ltd., priority 2023, dated 2025)

System: Ba/F3 (SLC34A2-ROS1 G2032R) cell line
Assay: Anti-tumor effect in subcutaneous transplanted Ba/F3 (SLC34A2-ROS1 G2032R) model
Type: in vivo, NOD-SCID mice
Conditions: for average tumor volume: 21st day after administration
Text: Housing environment: SPF grade.
Environmental conditions of the housing room of the laboratory animals: All the laboratory animals were housed in individually ventilated cages with constant temperature and constant humidity. […] The animals were continuously provided with cobalt-60 irradiated complete pelleted mouse feed with unlimited free access. The animals drank tap water (used after being autoclaved), which was provided continuously from water bottles, allowing for free access. The cages for raising the mice were polysulfone mice cages, which were autoclaved before use, and measured 325 mm × 210 mm × 180 mm. The bedding was autoclaved corn cobs. Each cage contained 5 animals. The cage cards were marked with the IACUC approval number, experiment number, start time of the experiment, project leader, experimenters, source of the animals, group, and animal number. The laboratory animals were marked with ear tags or ear labels.
The Ba/F3 (SLC34A2-ROS1 G2032R) cells in the exponential growth phase were collected, resuspended in PBS to a suitable concentration, and then subcutaneously inoculated into nude mice for tumor formation.
Assay method: Female NOD/SCID mice were subcutaneously inoculated with 2×10^6 Ba/F3 (SLC34A2-ROS1 G2032R) cells on the right side to establish a subcutaneous tumor transplantation model. […] The mice were administered orally via gavage once daily. The efficacy was evaluated based on the relative tumor growth inhibition rate (TGI), and the safety was evaluated based on the changes in the body weight and mortality of the animals.
All the procedures, including drug administration, tumor measurement, weight measurement, etc., were performed in a biosafety cabinet or on a clean bench.
The relative tumor growth rate (T/C%) was the percentage value of the relative tumor volume between a treatment group and the control group at a certain time point, or the percentage value of the tumor weight between a treatment group and the control group. The calculation formula was: T/C% = TRTV / CRTV × 100% (TRTV: the average RTV of the treatment group; CRTV: the average RTV of the solvent control group; RTV = Vt / V0, wherein V0 is the tumor volume of the animal at the time of grouping, and Vt is the tumor volume of the animal after treatment); or T/C% = TTW / CTW × 100% (TTW: the average tumor weight at the end of the assay in the treatment group; CTW: the average tumor weight at the end of the assay in the solvent control group).
Statistical analysis: To compare the tumor volume on a given day across the different treatment groups, we first used the Bartlett's test to verify the assumption of homogeneity of variance among all the groups. When the p-value of the Bartlett's test was not less than 0.05, one-way ANOVA was used to test whether the means of all the groups were equal. If the p-value of the one-way ANOVA was less than 0.05, we would use the Tukey's HSD test for the pairwise comparisons between all the groups, or use the Dunnett's test for a pairwise comparison between each treatment group and the control group. When the p-value of the Bartlett's test was less than 0.05, the Kruskal-Wallis test was used to test whether the medians of all the groups were equal. […]

[2H]C([2H])([2H])n1nc2c(c1C#N)-c1cnc(N)c(c1)O[C@H](C)c1cc(F)ccc1C(=O)N(C)C2 [compound A, (10R)-7-amino-12-fluoro-2-(methyl-d3)-10,16-dimethyl-15-oxo-10,15,16,17-tetrahydro-2H-8,4-(metheno)pyrazolo[4,3-h][2,5,11]benzoxadiazacyclotetradecine-3-carbonitrile]
average tumor volume (1.5 mg/kg p.o. once daily): 1334.38 mm^3
average tumor volume (5 mg/kg p.o. once daily): 305.46 mm^3
average tumor volume (15 mg/kg p.o. once daily): 0 mm^3
tumor-bearing mice with tumor volume reduced to 0 (15 mg/kg, end of the assay): 10/10
